From PubChem BioAssay AID1845216 (Molecular Pharmacology Branch, DTP, NCI, 2023)

Test system: SW 982 tumor spheroid viability
Assay: Anticancer human tumor SW 982 cell line growth inhibition;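 note: spheroids exposed to compound for 7 days before readout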
Conditions: spheroids with HUVEC and MSC; for IC50: curve of first compound; for viability, T/C: stronger effect = lower value
Procedure, shortened: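 Complex spheroids of malignant cells with endothelial cells and mesenchymal stem cells; agents alone or combined, from near clinical Cmax (or 10 microM if unknown) down in half-log steps, 0.25% DMSO final.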

[1] = second compound 1 µM, first compound 0.0316 µM
[2] = second compound 1 µM, first compound 0.1 µM
[3] = second compound 1 µM, first compound 0.316 µM
[4] = second compound 1 µM, first compound 1 µM
[5] = second compound 1 µM, first compound 3.16 µM
[6] = second compound 1 µM, first compound 10 µM
[7] = second compound 3.16 µM, first compound 0.0316 µM
[8] = second compound 3.16 µM, first compound 0.1 µM
[9] = second compound 3.16 µM, first compound 0.316 µM
[10] = second compound 3.16 µM, first compound 1 µM
[11] = second compound 3.16 µM, first compound 3.16 µM
[12] = second compound 3.16 µM, first compound 10 µM
[13] = second compound 10 µM, first compound 0.0316 µM
[14] = second compound 10 µM, first compound 0.1 µM
[15] = second compound 10 µM, first compound 0.316 µM
[16] = second compound 10 µM, first compound 1 µM
[17] = second compound 10 µM, first compound 3.16 µM
[18] = second compound 10 µM, first compound 10 µM
[19] = second compound 31.6 µM, first compound 0.0316 µM
[20] = second compound 31.6 µM, first compound 0.1 µM
[21] = second compound 31.6 µM, first compound 0.316 µM
[22] = second compound 31.6 µM, first compound 1 µM
[23] = second compound 31.6 µM, first compound 3.16 µM
[24] = second compound 31.6 µM, first compound 10 µM
[25] = second compound 100 µM, first compound 0.0316 µM
[26] = second compound 100 µM, first compound 0.1 µM
[27] = second compound 100 µM, first compound 0.316 µM
[28] = second compound 100 µM, first compound 1 µM
[29] = second compound 100 µM, first compound 3.16 µM
[30] = second compound 100 µM, first compound 10 µM

Row | SMILES | IC50 (second compound 1 µM) [µM] | IC50 (second compound 3.16 µM) [µM] | IC50 (second compound 10 µM) [µM] | IC50 (second compound 31.6 µM) [µM] | IC50 (second compound 100 µM) [µM] | viability, T/C [1] [%] | viability, T/C [2] [%] | viability, T/C [3] [%] | viability, T/C [4] [%] | viability, T/C [5] [%] | viability, T/C [6] [%] | viability, T/C [7] [%] | viability, T/C [8] [%] | viability, T/C [9] [%] | viability, T/C [10] [%] | viability, T/C [11] [%] | viability, T/C [12] [%] | viability, T/C [13] [%] | viability, T/C [14] [%] | viability, T/C [15] [%] | further results
1 | CC(C)n1c(=O)n(C)c2cnc3cc(F)c(-c4ccc(OCCCN5CCCCC5)nc4)cc3c21 + Cn1nnc2c(C(N)=O)ncn2c1=O | > 10 | 7.44 | 4.91 | 3.72 | 1.88 | 91.7 | 91.3 | 91.5 | 85.4 | 68.1 | 56.7 | 91 | 84 | 85.8 | 84.2 | 66.4 | 44.3 | 75.2 | 75.5 | 78.5 | viability, T/C [16]: 72.7%; viability, T/C [17]: 55.8%; viability, T/C [18]: 40.6%; viability, T/C [19]: 68.3%; viability, T/C [20]: 70%; viability, T/C [21]: 68.8%; viability, T/C [22]: 62%; viability, T/C [23]: 52.5%; viability, T/C [24]: 35%; viability, T/C [25]: 55.1%; viability, T/C [26]: 57.4%; viability, T/C [27]: 55.2%; viability, T/C [28]: 54%; viability, T/C [29]: 46.4%; viability, T/C [30]: 37%
2 | CC1COCCN1c1cc(-c2ccnn2C)c2ccnc(-c3ccn[nH]3)c2n1 (stereo not given) + Cn1nnc2c(C(N)=O)ncn2c1=O | < 0.0316 | < 0.0316 | < 0.0316 | < 0.0316 | < 0.0316 | 32.4 | 20.4 | 17.3 | 15.4 | 19.2 | 23 | 26.9 | 17 | 15.8 | 17 | 19.7 | 22.5 | 21.1 | 16.6 | 13 | viability, T/C [16]: 13.3%; viability, T/C [17]: 22.9%; viability, T/C [18]: 20.3%; viability, T/C [19]: 20.6%; viability, T/C [20]: 15.8%; viability, T/C [21]: 13.1%; viability, T/C [22]: 11.8%; viability, T/C [23]: 12.5%; viability, T/C [24]: 18.2%; viability, T/C [25]: 15%; viability, T/C [26]: 12.8%; viability, T/C [27]: 10.3%; viability, T/C [28]: 9.31%; viability, T/C [29]: 11.1%; viability, T/C [30]: 14.6%
3 | COc1cc(C)[nH]c(=O)c1CN1CCc2c(Cl)cc(C(OC)C3COC3)c(Cl)c2C1=O (stereo not given) + Cn1nnc2c(C(N)=O)ncn2c1=O | > 10 | > 10 | > 10 | > 10 | > 10 | 101 | 103 | 103 | 113 | 101 | 99.7 | 94.3 | 92.4 | 96 | 102 | 100 | 93.1 | 81.8 | 83.5 | 86.2 | viability, T/C [16]: 88.3%; viability, T/C [17]: 85.8%; viability, T/C [18]: 78.3%; viability, T/C [19]: 71.1%; viability, T/C [20]: 71.7%; viability, T/C [21]: 70.4%; viability, T/C [22]: 78.8%; viability, T/C [23]: 70%; viability, T/C [24]: 69.1%; viability, T/C [25]: 58.6%; viability, T/C [26]: 62.3%; viability, T/C [27]: 65%; viability, T/C [28]: 64.3%; viability, T/C [29]: 64.6%; viability, T/C [30]: 61.9%
4 | COc1ccc([C@@H](O)c2cc(-c3ncnc4cc(N5CCOCC5)ccc34)c(F)cc2Cl)nn1 + Cn1nnc2c(C(N)=O)ncn2c1=O | 6.29 | 3.83 | 4.03 | 1.18 | 0.283 | 90.6 | 95.4 | 93.3 | 84.9 | 81.6 | 29.6 | 76.7 | 83.8 | 90.1 | 70.4 | 55.9 | 26 | 76.9 | 70 | 73 | viability, T/C [16]: 57.6%; viability, T/C [17]: 63.2%; viability, T/C [18]: 18.4%; viability, T/C [19]: 63.5%; viability, T/C [20]: 63.2%; viability, T/C [21]: 60.4%; viability, T/C [22]: 51.5%; viability, T/C [23]: 38.5%; viability, T/C [24]: 25.5%; viability, T/C [25]: 59.9%; viability, T/C [26]: 57.9%; viability, T/C [27]: 48.1%; viability, T/C [28]: 39.3%; viability, T/C [29]: 32.5%; viability, T/C [30]: 15.6%
5 | Cc1cc(C)c(CNC(=O)c2cc(-c3ccc(CN4CCOCC4)cc3)cc3c2cnn3C2CCCC2)c(=O)[nH]1 + Cn1nnc2c(C(N)=O)ncn2c1=O | > 10 | > 10 | > 10 | > 10 | > 10 | 102 | 104 | 103 | 103 | 92.1 | 91.2 | 88.4 | 99.2 | 101 | 96.6 | 92.3 | 70.6 | 86.7 | 82.6 | 81.3 | viability, T/C [16]: 82.8%; viability, T/C [17]: 82.2%; viability, T/C [18]: 53.4%; viability, T/C [19]: 73.8%; viability, T/C [20]: 69%; viability, T/C [21]: 74.9%; viability, T/C [22]: 73.5%; viability, T/C [23]: 74.4%; viability, T/C [24]: 58.7%; viability, T/C [25]: 58.9%; viability, T/C [26]: 63%; viability, T/C [27]: 57.7%; viability, T/C [28]: 63.5%; viability, T/C [29]: 55.3%; viability, T/C [30]: 53.8%
6 | [2H]c1nc(C)nc([2H])c1-c1cc(NC[C@@H](C)c2cccc3c(C(=O)NC)ccnc23)ncn1 + Cn1nnc2c(C(N)=O)ncn2c1=O | > 10 | > 10 | > 10 | > 10 | > 10 | 100 | 102 | 92.6 | 103 | 106 | 82.3 | 92.6 | 86.4 | 96 | 86.8 | 63.9 | 55.1 | 83.8 | 76 | 78.5 | viability, T/C [16]: 80.7%; viability, T/C [17]: 71.7%; viability, T/C [18]: 59.8%; viability, T/C [19]: 69.5%; viability, T/C [20]: 76.2%; viability, T/C [21]: 76.8%; viability, T/C [22]: 72.5%; viability, T/C [23]: 76.5%; viability, T/C [24]: 71.2%; viability, T/C [25]: 63.5%; viability, T/C [26]: 63.4%; viability, T/C [27]: 58%; viability, T/C [28]: 60.9%; viability, T/C [29]: 56.9%; viability, T/C [30]: 60.7%
